Data taken from PubChem BioAssay AID256 (DTP/NCI, 2004).
Values joined by “and” are separate entries in the source; they are usually repeats but may differ in a detail not shown here. Equal entries are not always repeated. Toxic doses and inconclusive results are not listed. Rule for the calls: active = survival T/C of 150% or more; inactive = T/C below 125% in these data.

Tested on: CD2F1 mice, L1210 leukemia ip, survival T/C
Assay: NCI In Vivo Anticancer Drug Screen. Data for tumor model L1210 Leukemia (intraperitoneal) in CD2F1 (CDF1) mice
Details: higher = longer survival
In short: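 Tumor-bearing mice (transplanted tumor) were split into treated and vehicle control groups, and the measured endpoint of each treated group was divided by that of its vehicle controls.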

[1] = endpoint: mean survival time, dose: 100.0 mg/kg/injection, schedule: Q01DX001 (ip), vehicle: saline with Tween-80
[2] = endpoint: mean survival time, dose: 200.0 mg/kg/injection, schedule: Q01DX001 (ip), vehicle: saline with Tween-80
[3] = endpoint: mean survival time, dose: 50.0 mg/kg/injection, schedule: Q04DX002 (ip), vehicle: saline with Tween-80
[4] = endpoint: mean survival time, dose: 100.0 mg/kg/injection, schedule: Q04DX002 (ip), vehicle: saline with Tween-80
[5] = endpoint: mean survival time, dose: 200.0 mg/kg/injection, schedule: Q04DX002 (ip), vehicle: saline with Tween-80
[6] = endpoint: mean survival time, dose: 100.0 mg/kg/injection, schedule: Q04DX003 (ip), vehicle: Klucel (hydroxypropylcellulose) (HPC)
[7] = endpoint: mean survival time, dose: 200.0 mg/kg/injection, schedule: Q04DX003 (ip), vehicle: Klucel (hydroxypropylcellulose) (HPC)
[8] = endpoint: mean survival time, dose: 100.0 mg/kg/injection, schedule: Q04DX003 (ip), vehicle: saline with Tween-80
[9] = endpoint: mean survival time, dose: 200.0 mg/kg/injection, schedule: Q04DX003 (ip), vehicle: saline with Tween-80
[10] = endpoint: mean survival time, dose: 400.0 mg/kg/injection, schedule: Q04DX003 (ip), vehicle: saline with Tween-80
[11] = endpoint: mean survival time, dose: 400.0 mg/kg/injection, schedule: Q01DX001 (ip), vehicle: saline with Tween-80
[12] = endpoint: mean survival time, dose: 100.0 mg/kg/injection, schedule: Q04DX003 (ip), vehicle: saline
[13] = endpoint: mean survival time, dose: 200.0 mg/kg/injection, schedule: Q04DX003 (ip), vehicle: saline
[14] = endpoint: mean survival time, dose: 100.0 mg/kg/injection, schedule: Q01DX009 (ip), vehicle: saline with Tween-80
[15] = endpoint: mean survival time, dose: 200.0 mg/kg/injection, schedule: Q01DX009 (ip), vehicle: saline with Tween-80
[16] = endpoint: mean survival time, dose: 400.0 mg/kg/injection, schedule: Q04DX003 (ip), vehicle: Klucel (hydroxypropylcellulose) (HPC)
[17] = endpoint: mean survival time, dose: 25.0 mg/kg/injection, schedule: Q01DX009 (ip), vehicle: saline
[18] = endpoint: mean survival time, dose: 50.0 mg/kg/injection, schedule: Q01DX009 (ip), vehicle: saline
[19] = endpoint: mean survival time, dose: 100.0 mg/kg/injection, schedule: Q01DX009 (ip), vehicle: saline
[20] = endpoint: mean survival time, dose: 200.0 mg/kg/injection, schedule: Q01DX009 (ip), vehicle: saline
[21] = endpoint: mean survival time, dose: 400.0 mg/kg/injection, schedule: Q01DX009 (ip), vehicle: saline

Measured: T/C

CCCCCCCCCCCCCCCCCC[N+]1(C)CCSCC1
inactive: endpoint: mean survival time, dose: 12.5 mg/kg/injection, schedule: Q01DX001 (ip), vehicle: saline with Tween-80 95 % of control | endpoint: mean survival time, dose: 25.0 mg/kg/injection, schedule: Q01DX001 (ip), vehicle: saline with Tween-80 103 % of control | endpoint: mean survival time, dose: 50.0 mg/kg/injection, schedule: Q01DX001 (ip), vehicle: saline with Tween-80 104 % of control | [1] 91 % of control and 101 % of control | [2] 101 % of control and 110 % of control

C1CC[N-]CC1.C1CC[N-]CC1.C1CC[N-]CC1.C1CC[N-]CC1.N#C[S-].N#C[S-].[Ni]
inactive: endpoint: mean survival time, dose: 10.0 mg/kg/injection, schedule: Q04DX003 (ip), vehicle: Klucel (hydroxypropylcellulose) (HPC) 90 % of control | endpoint: mean survival time, dose: 20.0 mg/kg/injection, schedule: Q04DX003 (ip), vehicle: Klucel (hydroxypropylcellulose) (HPC) 91 % of control | endpoint: mean survival time, dose: 40.0 mg/kg/injection, schedule: Q04DX003 (ip), vehicle: Klucel (hydroxypropylcellulose) (HPC) 96 % of control

C=CCCCCC(=O)c1ccccc1
inactive: [3] 100 % of control | [4] 93 % of control | [5] 104 % of control

CC(=O)C1CCC2C3CC=C4CC(n5cc(F)c(=O)[nH]c5=O)CCC4(C)C3CCC12C (stereo unspecified)
inactive: endpoint: mean survival time, dose: 12.5 mg/kg/injection, schedule: Q04DX003 (ip), vehicle: Klucel (hydroxypropylcellulose) (HPC) 97 % of control | endpoint: mean survival time, dose: 25.0 mg/kg/injection, schedule: Q04DX003 (ip), vehicle: Klucel (hydroxypropylcellulose) (HPC) 101 % of control | endpoint: mean survival time, dose: 50.0 mg/kg/injection, schedule: Q04DX003 (ip), vehicle: Klucel (hydroxypropylcellulose) (HPC) 97 % of control | [6] 98 % of control | [7] 91 % of control

Nc1ccc(C(=O)O)cc1S(=O)(=O)O
inactive: endpoint: mean survival time, dose: 25.0 mg/kg/injection, schedule: Q01DX001 (ip), vehicle: Klucel (hydroxypropylcellulose) (HPC) 96 % of control | endpoint: mean survival time, dose: 50.0 mg/kg/injection, schedule: Q01DX001 (ip), vehicle: Klucel (hydroxypropylcellulose) (HPC) 100 % of control | endpoint: mean survival time, dose: 100.0 mg/kg/injection, schedule: Q01DX001 (ip), vehicle: Klucel (hydroxypropylcellulose) (HPC) 107 % of control

CC1(O)CCC(C)(O)CC1 (stereo unspecified)
inactive: endpoint: mean survival time, dose: 25.0 mg/kg/injection, schedule: Q04DX002 (ip), vehicle: saline with Tween-80 107 % of control and 103 % of control | [3] 95 % of control and 98 % of control | [4] 107 % of control and 98 % of control | [5] 103 % of control

O=c1cc(C(Br)(Br)Br)[nH]c2ccccc12
inactive: [8] 99 % of control | [9] 97 % of control | [10] 99 % of control

CC(=O)OCC1OC(N2C(=O)/C(=C/c3ccc(Cl)cc3)SC2=S)C(OC(C)=O)C(OC(C)=O)C1OC(C)=O (stereo unspecified)
inactive: endpoint: mean survival time, dose: 3.13 mg/kg/injection, schedule: Q01DX005 (ip), vehicle: distilled water + Tween-80 102 % of control | endpoint: mean survival time, dose: 6.25 mg/kg/injection, schedule: Q01DX005 (ip), vehicle: distilled water + Tween-80 96 % of control | endpoint: mean survival time, dose: 12.5 mg/kg/injection, schedule: Q01DX005 (ip), vehicle: distilled water + Tween-80 106 % of control | endpoint: mean survival time, dose: 25.0 mg/kg/injection, schedule: Q01DX005 (ip), vehicle: distilled water + Tween-80 95 % of control

[O-][n+]1c(Cl)nc(Cl)c(Cl)c1C(Cl)(Cl)Cl
inactive: endpoint: mean survival time, dose: 12.5 mg/kg/injection, schedule: Q04DX003 (ip), vehicle: other 111 % of control | endpoint: mean survival time, dose: 25.0 mg/kg/injection, schedule: Q04DX003 (ip), vehicle: other 103 % of control

O=C(N/N=C/c1ccccc1)c1nn[nH]n1
inactive: [1] 96 % of control | [2] 88 % of control | [11] 88 % of control

CCOC(=O)N(CCCl)C(=O)C(C)C
inactive: [12] 95 % of control | [13] 92 % of control | endpoint: mean survival time, dose: 400.0 mg/kg/injection, schedule: Q04DX003 (ip), vehicle: saline 97 % of control

C=CCOc1c(C)cc(C)cc1/C=C/C
inactive: [14] 94 % of control | [15] 89 % of control

O=C(O)C1C2c3cccc4cccc(c34)C12 (stereo unspecified)
inactive: endpoint: mean survival time, dose: 50.0 mg/kg/injection, schedule: Q01DX009 (ip), vehicle: saline with Tween-80 101 % of control | [14] 97 % of control | [8] 101 % of control | [15] 109 % of control | [9] 101 % of control

Cc1ccc(S(=O)(=O)Nc2ccc([N+](=O)[O-])cc2O)cc1
inactive: [6] 94 % of control | [7] 94 % of control | [16] 94 % of control

CC/C(=N/NC(=O)c1ccccc1)c1ccccc1
inactive: endpoint: mean survival time, dose: 100.0 mg/kg/injection, schedule: Q01DX009 (ip), vehicle: Klucel (hydroxypropylcellulose) (HPC) 97 % of control | [6] 96 % of control | [7] 94 % of control | [16] 86 % of control

N[C@@H](Cc1ccc(O)c(O)c1)C(=O)O
inactive: [17] 98 % of control | [18] 97 % of control | [19] 96 % of control | [4] 103 % of control | [20] 103 % of control | [5] 95 % of control | [21] 108 % of control | endpoint: mean survival time, dose: 400.0 mg/kg/injection, schedule: Q04DX002 (ip), vehicle: saline with Tween-80 98 % of control | endpoint: mean survival time, dose: 800.0 mg/kg/injection, schedule: Q01DX009 (ip), vehicle: saline 119 % of control

CC1(C)N=C(N)N=C(N)N1c1ccc(OCC(=O)Nc2ccc(S(=O)(=O)F)cc2)cc1
inactive: [18] 111 % of control | [19] 109 % of control | [20] 115 % of control | endpoint: mean survival time, dose: 300.0 mg/kg/injection, schedule: Q01DX009 (ip), vehicle: saline 115 % of control | [21] 121 % of control

C1=CC2CCC[N-]C2N1.C1=CC2CCC[N-]C2N1.[I][Pt+2][I] (stereo unspecified)
inactive: endpoint: mean survival time, dose: 25.0 mg/kg/injection, schedule: Q04DX003 (ip), vehicle: saline 98 % of control | endpoint: mean survival time, dose: 50.0 mg/kg/injection, schedule: Q04DX003 (ip), vehicle: saline 101 % of control | [12] 102 % of control | [13] 107 % of control

COc1ccc2ccccc2c1
inactive: [1] 101 % of control | endpoint: mean survival time, dose: 100.0 mg/kg/injection, schedule: Q04DX003 (ip), vehicle: other 100 % of control | [2] 100 % of control | endpoint: mean survival time, dose: 200.0 mg/kg/injection, schedule: Q04DX003 (ip), vehicle: other 104 % of control | [11] 111 % of control

COc1nc(NC2OC(CO)C(O)C(O)C2O)c(I)c(=O)[nH]1 (stereo unspecified)
inactive: endpoint: median survival time, dose: 12.5 mg/kg/injection, schedule: Q01DX005 (ip), vehicle: saline 109 % of control | endpoint: median survival time, dose: 25.0 mg/kg/injection, schedule: Q01DX005 (ip), vehicle: saline 107 % of control | endpoint: median survival time, dose: 50.0 mg/kg/injection, schedule: Q01DX005 (ip), vehicle: saline 100 % of control | endpoint: median survival time, dose: 100.0 mg/kg/injection, schedule: Q01DX005 (ip), vehicle: saline 101 % of control | endpoint: median survival time, dose: 200.0 mg/kg/injection, schedule: Q01DX005 (ip), vehicle: saline 100 % of control

CCOC(OCC)n1ncnc1NC(=S)NCc1ccccc1
inactive: endpoint: mean survival time, dose: 12.5 mg/kg/injection, schedule: Q01DX001 (ip), vehicle: carboxymethylcellulose (CMC) 100 % of control | endpoint: mean survival time, dose: 25.0 mg/kg/injection, schedule: Q01DX001 (ip), vehicle: carboxymethylcellulose (CMC) 95 % of control | endpoint: mean survival time, dose: 50.0 mg/kg/injection, schedule: Q01DX001 (ip), vehicle: carboxymethylcellulose (CMC) 93 % of control | endpoint: mean survival time, dose: 100.0 mg/kg/injection, schedule: Q01DX001 (ip), vehicle: carboxymethylcellulose (CMC) 108 % of control | endpoint: mean survival time, dose: 200.0 mg/kg/injection, schedule: Q01DX001 (ip), vehicle: carboxymethylcellulose (CMC) 91 % of control

O=C(CSC1=NCCN1)c1ccccc1
inactive: endpoint: mean survival time, dose: 12.5 mg/kg/injection, schedule: Q01DX009 (ip), vehicle: saline 101 % of control | [17] 101 % of control | [18] 102 % of control

CNC(=S)NC1CCCCC1
inactive: [8] 97 % of control | [9] 100 % of control | [10] 89 % of control
